Data: US20250082687A1, “COMPOSITION FOR IMPROVING MEMORY OR COGNITIVE ABILITY, OR PREVENTING OR TREATING BRAIN NEUROLOGICAL DISEASE, COMPRISING PORCINE BRAIN ENZYME HYDROLYSATE” (UNIMED PHARMACEUTICALS INC., priority 2022, published 2025)
Where a SMILES comes first, the peptide text is derived from it.

Legend:
[1] = Cytotoxicity of peptides (MTT cell viability); type: cell-based, human; details: human, SH-SY5Y cells, all tested concentrations (0.4˜40 ug/ml)
Experimental: (§1) SH-SY5Y cells, a human neuronal cell line, were obtained from the Korean Cell Line Bank (Cat No. 22266) and were cultured in Roswell Park Memorial Institute (RPMI) 1640 Medium (RPMI 1640, Cytiba) medium containing 10% fetal bovine serum (FBS, Cytiba) and 100 IU/ml penicillin and 100 μg/ml streptomycin in a 5% CO2, 37° C. incubator.
(§2) The human neuronal cell line SH-SY5Y was cultured and various concentrations of porcine brain enzyme hydrolysate-derived peptides were added to determine cell viability by MTT (methylthiazol tetrazolium bromide, Sigma Aldrich). Cells were seeded in appropriate amounts (1×10^5/well) in each well of a 24 well plate (BD, Falcon), treated with each concentration, and cell viability was determined after 48 hours of incubation in a 37° C. incubator. After 4 hours of reaction with MTT solution, the insoluble formazan crystals were dissolved by adding 400 μl of DMSO and the absorbance was measured with an ELISA reader (TECAN, Infinite M200 pro) at a wavelength of 570 nm.

[2] = system: SH-SY5Y cells; assay: Cytotoxicity of peptides (MTT cell viability); type: cell-based, human; details: 40 ug/mL (w/v), 48 hours
Experimental: as §1, §2

CC[C@H](C)[C@H](NC(=O)[C@H](CO)NC(=O)[C@@H]1CCCN1)C(=O)N[C@@H](CO)C(=O)O [brPEP-1, PSIS] (H-PSIS-OH)
viability at 48 h [1]: > 90% | cell viability [2]: 93.05%±2.23%

C[C@H](NC(=O)[C@@H]1CCCN1C(=O)CN)C(=O)NCC(=O)N1CCC[C@H]1C(=O)N[C@@H](CCC(N)=O)C(=O)NCC(=O)N1CCC[C@H]1C(=O)N[C@@H](CCCNC(=N)N)C(=O)O [brPEP-2, GPAGPQGPR]
viability at 48 h [1]: > 90% | cell viability [2]: 108.47%±5.20%
